Laboratory results published in PubChem BioAssay AID2060485 (Molecular Pharmacology Branch, DTP, NCI, 2025).

System: A375 multi-cell spheroids with HUVEC/MSC, viability
Assay: Anticancer human tumor A375 cell line growth inhibition [GQUAD];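 further: spheroids exposed to compounds for seven days before readout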
Details: for IC50: curve of first compound; for viability, T/C: stronger effect = lower value
Summary of the method: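 Tumor cells were grown as complex spheroids with HUVEC endothelial cells and mesenchymal stem cells as stroma. G-quadruplex stabilizers were combined with targeted agents over half-log dilutions from near the clinical Cmax, or from 10 microM.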

[1] = second compound 0.0316 µM, first compound 0.0316 µM
[2] = second compound 0.0316 µM, first compound 0.1 µM
[3] = second compound 0.0316 µM, first compound 0.316 µM
[4] = second compound 0.0316 µM, first compound 1 µM
[5] = second compound 0.0316 µM, first compound 3.16 µM
[6] = second compound 0.0316 µM, first compound 10 µM
[7] = second compound 0.1 µM, first compound 0.0316 µM
[8] = second compound 0.1 µM, first compound 0.1 µM
[9] = second compound 0.1 µM, first compound 0.316 µM
[10] = second compound 0.1 µM, first compound 1 µM
[11] = second compound 0.1 µM, first compound 3.16 µM
[12] = second compound 0.1 µM, first compound 10 µM
[13] = second compound 0.316 µM, first compound 0.0316 µM
[14] = second compound 0.316 µM, first compound 0.1 µM
[15] = second compound 0.316 µM, first compound 0.316 µM
[16] = second compound 0.316 µM, first compound 1 µM
[17] = second compound 0.316 µM, first compound 3.16 µM
[18] = second compound 0.316 µM, first compound 10 µM
[19] = second compound 1 µM, first compound 0.0316 µM
[20] = second compound 1 µM, first compound 0.1 µM
[21] = second compound 1 µM, first compound 0.316 µM
[22] = second compound 1 µM, first compound 1 µM
[23] = second compound 1 µM, first compound 3.16 µM
[24] = second compound 1 µM, first compound 10 µM
[25] = second compound 3.16 µM, first compound 0.0316 µM
[26] = second compound 3.16 µM, first compound 0.1 µM
[27] = second compound 3.16 µM, first compound 0.316 µM
[28] = second compound 3.16 µM, first compound 1 µM
[29] = second compound 3.16 µM, first compound 3.16 µM
[30] = second compound 3.16 µM, first compound 10 µM
[31] = second compound 10 µM, first compound 0.0316 µM
[32] = second compound 10 µM, first compound 0.1 µM
[33] = second compound 10 µM, first compound 0.316 µM
[34] = second compound 10 µM, first compound 1 µM
[35] = second compound 10 µM, first compound 3.16 µM
[36] = second compound 10 µM, first compound 10 µM

CC(C)n1c(=O)n(C)c2cnc3cc(F)c(-c4ccc(OCCCN5CCCCC5)nc4)cc3c21 + Cc1cnc(CNC(=O)c2c(=O)c3ccc(N4CCCN(C)CC4)nc3n3c2sc2ccccc23)cn1
IC50 (second compound 0.0316 µM): > 10 µM
IC50 (second compound 0.1 µM): > 10 µM
IC50 (second compound 0.316 µM): 0.778 µM
IC50 (second compound 1 µM): 0.0853 µM
IC50 (second compound 3.16 µM): < 0.0316 µM
IC50 (second compound 10 µM): < 0.0316 µM
viability, T/C [1]: 108%
viability, T/C [2]: 90.5%
viability, T/C [3]: 98.4%
viability, T/C [4]: 82.2%
viability, T/C [5]: 72.5%
viability, T/C [6]: 58.7%
viability, T/C [7]: 77.6%
viability, T/C [8]: 64.2%
viability, T/C [9]: 74.2%
viability, T/C [10]: 63.4%
viability, T/C [11]: 55.5%
viability, T/C [12]: 50.7%
viability, T/C [13]: 60.5%
viability, T/C [14]: 53.1%
viability, T/C [15]: 53%
viability, T/C [16]: 49.8%
viability, T/C [17]: 45.6%
viability, T/C [18]: 37.6%
viability, T/C [19]: 56%
viability, T/C [20]: 47.4%
viability, T/C [21]: 40.4%
viability, T/C [22]: 45.2%
viability, T/C [23]: 40.3%
viability, T/C [24]: 30.5%
viability, T/C [25]: 43.7%
viability, T/C [26]: 41.9%
viability, T/C [27]: 40%
viability, T/C [28]: 36.8%
viability, T/C [29]: 37.2%
viability, T/C [30]: 28.4%
viability, T/C [31]: 35.8%
viability, T/C [32]: 39%
viability, T/C [33]: 38.9%
viability, T/C [34]: 34.2%
viability, T/C [35]: 30.3%
viability, T/C [36]: 22.8%

CC1COCCN1c1cc(-c2ccnn2C)c2ccnc(-c3ccn[nH]3)c2n1 (stereo not drawn) + Cc1cnc(CNC(=O)c2c(=O)c3ccc(N4CCCN(C)CC4)nc3n3c2sc2ccccc23)cn1
IC50 (second compound 0.0316 µM): 0.279 µM
IC50 (second compound 0.1 µM): 0.0743 µM
IC50 (second compound 0.316 µM): < 0.0316 µM
IC50 (second compound 1 µM): < 0.0316 µM
IC50 (second compound 3.16 µM): < 0.0316 µM
IC50 (second compound 10 µM): < 0.0316 µM
viability, T/C [1]: 102%
viability, T/C [2]: 69.3%
viability, T/C [3]: 51.9%
viability, T/C [4]: 28.3%
viability, T/C [5]: 13.8%
viability, T/C [6]: 13.9%
viability, T/C [7]: 67.5%
viability, T/C [8]: 37.5%
viability, T/C [9]: 35.9%
viability, T/C [10]: 23.3%
viability, T/C [11]: 13.7%
viability, T/C [12]: 9.98%
viability, T/C [13]: 39.5%
viability, T/C [14]: 33.8%
viability, T/C [15]: 27.6%
viability, T/C [16]: 21.7%
viability, T/C [17]: 13.9%
viability, T/C [18]: 10.4%
viability, T/C [19]: 38.2%
viability, T/C [20]: 35%
viability, T/C [21]: 29.6%
viability, T/C [22]: 21.5%
viability, T/C [23]: 12.7%
viability, T/C [24]: 11.3%
viability, T/C [25]: 30.8%
viability, T/C [26]: 30.2%
viability, T/C [27]: 30.7%
viability, T/C [28]: 22.4%
viability, T/C [29]: 13.2%
viability, T/C [30]: 10%
viability, T/C [31]: 26.7%
viability, T/C [32]: 27.9%
viability, T/C [33]: 24.1%
viability, T/C [34]: 16.9%
viability, T/C [35]: 13.3%
viability, T/C [36]: 9.71%

Cn1ncnc1[C@H]1c2n[nH]c(=O)c3cc(F)cc(c23)N[C@@H]1c1ccc(F)cc1 + Cc1cnc(CNC(=O)c2c(=O)c3ccc(N4CCCN(C)CC4)nc3n3c2sc2ccccc23)cn1
IC50 (second compound 0.0316 µM): > 0.316 µM
IC50 (second compound 0.1 µM): > 0.316 µM
IC50 (second compound 0.316 µM): 0.0403 µM
IC50 (second compound 1 µM): < 0.000999 µM
IC50 (second compound 3.16 µM): < 0.000999 µM
IC50 (second compound 10 µM): < 0.000999 µM
viability, T/C (second compound 0.0316 µM, first compound 0.000999 µM): 100%
viability, T/C (second compound 0.0316 µM, first compound 0.00316 µM): 98.9%
viability, T/C (second compound 0.0316 µM, first compound 0.00999 µM): 107%
viability, T/C [1]: 97.4%
viability, T/C (second compound 0.0316 µM, first compound 0.0999 µM): 75.6%
viability, T/C [3]: 90.6%
viability, T/C (second compound 0.1 µM, first compound 0.000999 µM): 98.7%
viability, T/C (second compound 0.1 µM, first compound 0.00316 µM): 73.7%
viability, T/C (second compound 0.1 µM, first compound 0.00999 µM): 72.2%
viability, T/C [7]: 68.9%
viability, T/C (second compound 0.1 µM, first compound 0.0999 µM): 55.7%
viability, T/C [9]: 60.5%
viability, T/C (second compound 0.316 µM, first compound 0.000999 µM): 55.8%
viability, T/C (second compound 0.316 µM, first compound 0.00316 µM): 55.5%
viability, T/C (second compound 0.316 µM, first compound 0.00999 µM): 49.4%
viability, T/C [13]: 53.8%
viability, T/C (second compound 0.316 µM, first compound 0.0999 µM): 46.6%
viability, T/C [15]: 43%
viability, T/C (second compound 1 µM, first compound 0.000999 µM): 39%
viability, T/C (second compound 1 µM, first compound 0.00316 µM): 47.1%
viability, T/C (second compound 1 µM, first compound 0.00999 µM): 44.3%
viability, T/C [19]: 41.8%
viability, T/C (second compound 1 µM, first compound 0.0999 µM): 41.4%
viability, T/C [21]: 44.3%
viability, T/C (second compound 3.16 µM, first compound 0.000999 µM): 35.9%
viability, T/C (second compound 3.16 µM, first compound 0.00316 µM): 43.8%
viability, T/C (second compound 3.16 µM, first compound 0.00999 µM): 34.2%
viability, T/C [25]: 30.3%
viability, T/C (second compound 3.16 µM, first compound 0.0999 µM): 34.2%
viability, T/C [27]: 32.7%
viability, T/C (second compound 10 µM, first compound 0.000999 µM): 29.1%
viability, T/C (second compound 10 µM, first compound 0.00316 µM): 32.7%
viability, T/C (second compound 10 µM, first compound 0.00999 µM): 33%
viability, T/C [31]: 32.4%
viability, T/C (second compound 10 µM, first compound 0.0999 µM): 36.2%
viability, T/C [33]: 32.3%

O=C(c1cc(Cc2n[nH]c(=O)c3ccccc23)ccc1F)N1CCN(C(=O)C2CC2)CC1 + Cc1cnc(CNC(=O)c2c(=O)c3ccc(N4CCCN(C)CC4)nc3n3c2sc2ccccc23)cn1
IC50 (second compound 0.0316 µM): > 10 µM
IC50 (second compound 0.1 µM): > 10 µM
IC50 (second compound 0.316 µM): 0.76 µM
IC50 (second compound 1 µM): < 0.0316 µM
IC50 (second compound 3.16 µM): < 0.0316 µM
IC50 (second compound 10 µM): < 0.0316 µM
viability, T/C [1]: 108%
viability, T/C [2]: 98.9%
viability, T/C [3]: 101%
viability, T/C [4]: 95.5%
viability, T/C [5]: 85.4%
viability, T/C [6]: 68.1%
viability, T/C [7]: 80.9%
viability, T/C [8]: 71.1%
viability, T/C [9]: 65.8%
viability, T/C [10]: 65.3%
viability, T/C [11]: 61.8%
viability, T/C [12]: 51.8%
viability, T/C [13]: 49.5%
viability, T/C [14]: 57.8%
viability, T/C [15]: 58.6%
viability, T/C [16]: 48.3%
viability, T/C [17]: 45%
viability, T/C [18]: 42%
viability, T/C [19]: 40.6%
viability, T/C [20]: 40.6%
viability, T/C [21]: 43.6%
viability, T/C [22]: 35.7%
viability, T/C [23]: 38%
viability, T/C [24]: 34.7%
viability, T/C [25]: 32%
viability, T/C [26]: 36.7%
viability, T/C [27]: 43%
viability, T/C [28]: 31.4%
viability, T/C [29]: 30.8%
viability, T/C [30]: 32.7%
viability, T/C [31]: 26.9%
viability, T/C [32]: 30.4%
viability, T/C [33]: 30.5%
viability, T/C [34]: 29.2%
viability, T/C [35]: 30.2%
viability, T/C [36]: 24.8%
